Measurements taken from ChEMBL document CHEMBL4808208, “Hepatoselective Dihydroquinolizinone Bis-acids for HBsAg mRNA Degradation” (ACS Med Chem Lett, 2021).
Several values for one entry are separate records, joined by “and”; a condition that tells them apart may be missing. Equal entries are not always repeated. Activity calls are given as the source filed them. The rule behind the calls is not given here.

How the values were obtained:
[1] = molecular target: Cytochrome P450 2D6 (Homo sapiens, UniProt P10635); test: Inhibition of CYP2D6 in human liver microsomes using dextromethorphan as substrate preincubated for 5 mins followed by NADPH addition by LC-MS/MS analysis; type: ADME
[2] = Cmax in CD-1 mouse plasma at 8 mg/kg, po measured for 24 hrs by LC-MS/MS analysis; type: ADME, organism-based; design: route oral, dose 8 mg/kg, time 24 hrs
[3] = system: Hepatitis B virus; test: Antiviral activity against Hepatitis B virus infected in human HepG2.2.15 cells assessed as reduction in HBV subgenomic 2.4/2.1 kb mRNA level at 1 uM measured after 5 days by Northern blot analysis; type: functional, organism-based; details: time 5.0 day
[4] = AUC (last) in CD-1 mouse liver at 8 mg/kg, po measured for 24 hrs by LC-MS/MS analysis; type: ADME, organism-based; design: route oral, time 24 hrs, dose 8 mg/kg
[5] = Cmax in CD-1 mouse liver at 8 mg/kg, po measured for 24 hrs by LC-MS/MS analysis; type: ADME, organism-based; design: route oral, dose 8 mg/kg, time 24 hrs
[6] = Apparent permeability across basolateral to apical side in MDCK-MDR1 cells at 1 uM measured after 120 mins by LC-MS/MS analysis; type: ADME, cell-based, Canis lupus familiaris; details: dog
[7] = molecular target: Terminal nucleotidyltransferase 4A (Homo sapiens) (UniProt Q5XG87); test: Inhibition of human PAPD7 expressed in HEK293 cells assessed as inhibition of poly-adenylation reaction using P32-labeled RNA oligonucleotides (5'-GCCUUUCAUCUCUAACUGCGAAAAAAAAAA-3') as substrate measured for 3 hrs by phosphor imaging analysis; type: cell-based; details: dose 0.37-10 µM
[8] = Efflux ratio of apparent permeability in MDCK-MDR1 cells at 1 uM after 120 mins by LC-MS/MS analysis; type: ADME, cell-based, Canis lupus familiaris; details: dog
[9] = system: OATP1B1; test: Ratio of drug uptake in HEK293 cells transfected with OATP1B1 (unknown origin) in absence of transporter inhibitor, estradiol-17beta-glucuronide to drug uptake in HEK293 cells in absence of transporter inhibitor, estradiol-17beta-glucuronide by LC-MS/MS analysis; type: ADME, cell-based; details: human, HEK293 cells transfected with OATP1B1 versus HEK293 cells
[10] = Metabolic stability in mouse liver microsomes assessed as half life preincubated with compound for 10 mins followed by NADPH regenerating system addition and measured for 60 mins by LC/MS-MS analysis; type: ADME, Microsome; details: time 70 min
[11] = Drug concentration in CD-1 mouse liver at 8 mg/kg, po measured after 30 mins by LC-MS/MS analysis; type: ADME, organism-based; details: read-out: Ct
[12] = system: Hepatitis B virus; test: Antiviral activity against Hepatitis B virus infected in human HepG2.2.15 cells assessed as reduction in HBsAg level measured after 4 days by AlphaLisa assay; type: functional, organism-based; details: HepG2.2.15, 96 h
[13] = molecular target: Cytochrome P450 2C9 (Homo sapiens, UniProt P11712); test: Inhibition of CYP2C9 in human liver microsomes using tolbutamide as substrate preincubated for 5 mins followed by NADPH addition by LC-MS/MS analysis; type: ADME
[14] = Apparent permeability of the compound across basolateral to apical side in human Caco-2 cells at 10 uM incubated for 1 hr; type: ADME, cell-based
[15] = Metabolic stability in mouse liver microsomes assessed as clearance preincubated with compound for 10 mins followed by NADPH regenerating system addition and measured per mg protein for 60 mins by LC/MS-MS analysis; type: ADME, Microsome; details: time 70 min, read-out: CLH
[16] = Ratio of AUC(last) in liver to plasma in CD-1 mouse at 8 mg/kg, po by LC-MS/MS analysis; type: ADME, organism-based
[17] = molecular target: Terminal nucleotidyltransferase 4B (Homo sapiens) (UniProt Q8NDF8); test: Inhibition of Myc-DDK-tagged human PAPD5 expressed in HEK293 cells assessed as inhibition of poly-adenylation reaction using P32-labeled RNA oligonucleotides (5'-GCCUUUCAUCUCUAACUGCGAAAAAAAAAA-3') as substrate measured for 20 mins by phosphor imaging analysis; details: dose 0.37-10 µM
[18] = molecular target: T1, Solute carrier organic anion transporter family member 1B3 (Homo sapiens, UniProt Q9NPD5); test: Substrate activity at OATP1B3 (unknown origin) expressed in HEK293 cells assessed as ratio of drug uptake in absence of transporter inhibitor, estradiol-17beta-glucuronide to drug uptake in presence of transporter inhibitor, estradiol-17beta-glucuronide by LC-MS/MS analysis; type: ADME, cell-based
T1 sequence (Q9NPD5 whole entry): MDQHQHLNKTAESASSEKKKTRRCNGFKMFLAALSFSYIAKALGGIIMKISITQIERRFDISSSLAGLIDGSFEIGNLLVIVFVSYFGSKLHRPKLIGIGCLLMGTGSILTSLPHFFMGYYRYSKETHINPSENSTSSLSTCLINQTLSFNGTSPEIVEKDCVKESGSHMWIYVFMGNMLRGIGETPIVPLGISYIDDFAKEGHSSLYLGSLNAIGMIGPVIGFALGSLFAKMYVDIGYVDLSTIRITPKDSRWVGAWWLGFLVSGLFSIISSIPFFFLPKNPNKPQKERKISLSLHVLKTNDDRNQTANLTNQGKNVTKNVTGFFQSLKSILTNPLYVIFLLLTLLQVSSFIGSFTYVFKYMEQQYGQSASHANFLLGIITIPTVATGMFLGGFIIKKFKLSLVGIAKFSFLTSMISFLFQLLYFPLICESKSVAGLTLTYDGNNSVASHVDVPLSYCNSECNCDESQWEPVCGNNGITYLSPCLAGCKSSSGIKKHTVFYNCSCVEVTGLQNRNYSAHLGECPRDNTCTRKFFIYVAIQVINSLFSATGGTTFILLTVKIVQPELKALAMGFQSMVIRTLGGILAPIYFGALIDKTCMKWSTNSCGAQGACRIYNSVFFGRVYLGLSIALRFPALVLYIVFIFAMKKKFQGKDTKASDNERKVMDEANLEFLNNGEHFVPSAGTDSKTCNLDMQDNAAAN

Sequence of Cytochrome P450 2C9 (P11712 whole entry): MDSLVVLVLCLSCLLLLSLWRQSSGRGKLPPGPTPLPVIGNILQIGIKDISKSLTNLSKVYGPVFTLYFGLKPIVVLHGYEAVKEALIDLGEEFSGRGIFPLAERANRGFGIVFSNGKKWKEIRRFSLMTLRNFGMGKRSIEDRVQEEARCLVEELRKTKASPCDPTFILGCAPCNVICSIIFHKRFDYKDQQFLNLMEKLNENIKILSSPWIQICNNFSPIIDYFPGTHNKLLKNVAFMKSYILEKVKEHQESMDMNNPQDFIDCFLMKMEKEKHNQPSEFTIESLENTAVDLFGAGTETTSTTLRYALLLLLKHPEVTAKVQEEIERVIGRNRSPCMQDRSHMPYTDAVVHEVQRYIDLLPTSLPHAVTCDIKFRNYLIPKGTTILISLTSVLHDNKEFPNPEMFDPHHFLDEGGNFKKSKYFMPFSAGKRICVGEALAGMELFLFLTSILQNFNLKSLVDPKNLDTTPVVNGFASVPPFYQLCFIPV
Sequence of Terminal nucleotidyltransferase 4A (Homo sapiens) (Q5XG87 whole entry): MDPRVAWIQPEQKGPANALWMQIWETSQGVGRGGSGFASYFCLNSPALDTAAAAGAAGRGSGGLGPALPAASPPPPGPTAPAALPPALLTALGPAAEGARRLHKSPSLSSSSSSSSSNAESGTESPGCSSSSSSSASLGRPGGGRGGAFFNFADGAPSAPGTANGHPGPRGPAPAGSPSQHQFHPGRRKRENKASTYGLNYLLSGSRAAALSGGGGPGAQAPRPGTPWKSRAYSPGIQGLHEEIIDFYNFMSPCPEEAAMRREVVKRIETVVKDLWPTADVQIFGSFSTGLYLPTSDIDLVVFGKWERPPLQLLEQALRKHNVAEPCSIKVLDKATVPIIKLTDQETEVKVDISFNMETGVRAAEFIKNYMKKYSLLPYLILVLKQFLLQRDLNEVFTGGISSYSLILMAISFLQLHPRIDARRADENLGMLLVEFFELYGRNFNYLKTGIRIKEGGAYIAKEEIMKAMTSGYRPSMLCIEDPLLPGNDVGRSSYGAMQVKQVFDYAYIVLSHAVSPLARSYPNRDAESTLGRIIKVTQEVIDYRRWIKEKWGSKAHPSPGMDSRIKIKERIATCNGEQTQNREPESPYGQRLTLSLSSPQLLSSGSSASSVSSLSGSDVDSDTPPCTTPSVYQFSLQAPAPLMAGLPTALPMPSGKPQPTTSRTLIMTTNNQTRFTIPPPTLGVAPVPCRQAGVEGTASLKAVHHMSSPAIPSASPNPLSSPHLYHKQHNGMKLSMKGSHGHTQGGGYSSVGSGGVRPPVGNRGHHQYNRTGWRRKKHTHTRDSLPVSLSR
Sequence of Cytochrome P450 2D6 (P10635 whole entry): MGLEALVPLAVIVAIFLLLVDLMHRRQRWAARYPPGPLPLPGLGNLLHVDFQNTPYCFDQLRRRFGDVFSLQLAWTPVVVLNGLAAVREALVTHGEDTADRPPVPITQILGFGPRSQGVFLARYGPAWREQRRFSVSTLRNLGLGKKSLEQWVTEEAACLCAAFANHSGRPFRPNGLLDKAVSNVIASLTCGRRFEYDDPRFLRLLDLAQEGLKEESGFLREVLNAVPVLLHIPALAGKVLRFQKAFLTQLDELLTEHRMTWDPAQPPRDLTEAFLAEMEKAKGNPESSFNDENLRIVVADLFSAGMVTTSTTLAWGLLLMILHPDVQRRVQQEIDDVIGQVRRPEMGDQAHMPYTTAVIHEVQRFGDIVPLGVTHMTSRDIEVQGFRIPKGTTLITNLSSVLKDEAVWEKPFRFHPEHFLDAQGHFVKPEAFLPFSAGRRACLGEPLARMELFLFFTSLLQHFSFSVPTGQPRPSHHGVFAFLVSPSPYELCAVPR
Sequence of Terminal nucleotidyltransferase 4B (Homo sapiens) (Q8NDF8 whole entry): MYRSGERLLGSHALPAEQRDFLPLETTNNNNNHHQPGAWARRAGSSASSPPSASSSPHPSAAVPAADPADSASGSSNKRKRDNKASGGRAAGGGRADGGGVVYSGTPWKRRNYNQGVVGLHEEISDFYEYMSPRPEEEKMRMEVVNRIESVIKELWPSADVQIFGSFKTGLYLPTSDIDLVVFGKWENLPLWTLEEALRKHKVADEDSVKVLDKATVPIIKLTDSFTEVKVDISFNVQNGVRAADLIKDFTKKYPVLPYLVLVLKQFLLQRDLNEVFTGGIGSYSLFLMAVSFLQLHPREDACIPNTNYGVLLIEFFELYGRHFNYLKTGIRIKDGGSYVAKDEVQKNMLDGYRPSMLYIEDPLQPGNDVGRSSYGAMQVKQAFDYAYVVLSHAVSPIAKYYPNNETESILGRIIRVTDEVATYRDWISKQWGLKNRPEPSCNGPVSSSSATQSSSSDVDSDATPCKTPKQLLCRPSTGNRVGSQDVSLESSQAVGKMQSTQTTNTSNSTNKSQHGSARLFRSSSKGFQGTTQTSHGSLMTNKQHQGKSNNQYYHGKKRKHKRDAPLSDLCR

IC50 [1]: > 10 µM | Cmax [2]: 16.1 ng/mL | AUC(0-t) at 24 h [4]: 1310 ng·h/mL | Cmax [5]: 333 ng/mL | Papp B→A at 2 h, 1 µM [6]: 0.55 ×10⁻⁶ cm/s | inhibition [7]: Dose-Dependent Effect | efflux ratio at 2 h, 1 µM [8]: 1.47 | uptake ratio [9]: 19 | half-life [10]: 28.9 h | concentration at 0.5 h [11]: 309 ng/mL and 680 nM | EC50 [12]: 0.023 µM | IC50 [13]: > 10 µM | Papp B→A at 1 h, 10 µM [14]: 2.06 ×10⁻⁶ cm/s | microsomal CLint [15]: 0.8 µL/min/mg | Kp [16]: 37.7 | inhibition [17]: Dose-Dependent Effect | Ratio [18]: 11.57
SMILES: COc1cc2c(cc1OCCCCCCC(=O)O)C[C@@H](C(C)C)n1cc(C(=O)O)c(=O)cc1-2
Activity [3]: Active
